Results from patent US20120010262A1, “CRYSTALLINE POLYMORPHIC FORMS OF AN ANTIDIABETIC COMPOUND” (priority 2009, published 2012).

Assay: Solid-form stability of crystalline anhydrate Form II (conversion to Anhydrate III)
Format: physicochemical
Conditions: converts to crystalline Anhydrate III when heated to 160° C. for 1 hour or in solutions of ethanol, isoamyl alcohol and isopropyl acetate
Procedure: Anhydrate Form II is prepared from a solution of the crystalline hydrate form at a concentration of >100 mg/mL in acetonitrile. The solution is sonicated for approximately 5 minutes to induce crystallization. Anhydrate H is metastable. It converts to crystalline Anhydrate III when heated to 160° C. for 1 hour or in solutions of ethanol, isoamyl alcohol and isopropyl acetate. The X Ray Powder Diffraction peaks are shown below in Table 4.

SMILES: CCC[C@H](c1ccc(C(=O)NCCC(=O)O)cc1)[C@H](c1ccc(Cl)cc1)c1c[nH]c2c(F)cc(C)cc12 [Anhydrate H, N-(4-{(1S)-1-[(R)-(4-chlorophenyl)(7-fluoro-5-methyl-1H-indol-3-yl)methyl]butyl}benzoyl)-β-alanine]
- physical stability of the crystalline form: metastable
